Measurements taken from publication PMC11722285, “Exploring the Potential of Malvidin and Echiodinin as Probable Antileishmanial Agents Through In Silico Analysis and In Vitro Efficacy” (Molecules, 2025).
Where two headings read alike, the source gives them in different places.

Assays:
Type in all cases: cell-based
[1] = test system: L. amazonensis stationary promastigotes; assay: In vitro antileishmanial activity, stationary promastigotes (MTT); settings: for IC50: 48 h, stationary promastigotes, mean ± SD, read-out: IC50 (µM) Stationary Promastigotes L. amazonensis
Procedure: (§1) L. amazonensis (IFLA/BR/1967/PH-8), L. braziliensis (MHOM/BR/1975/M2903), and L. infantum (MHOM/BR/1970/BH46) were used as parasites. Stationary promastigotes were grown at a 24 °C in complete Schneider’s medium (Sigma-Aldrich, St. Louis, MO, USA), which was composed of medium plus 20% (v/v) heat-inactivated fetal bovine serum (FBS; Sigma-Aldrich, USA) and 20 mM L-glutamine with a pH of 7.4 [139]. To obtain the axenic amastigotes, 10^9 stationary promastigotes were washed three times in sterile phosphate-buffered saline (PBS 1X and incubated in 5 mL FBS for 48 h (L. amazonensis and L. braziliensis) and 72 h (L. infantum), respectively, at 37 °C. Parasites were washed in cold PBS 1x, and their morphology was evaluated after staining using the Giemsa method in an optical microscope, as previously described.
(§2) AmpB (0 to 10.8 µM; Sigma-Aldrich, USA) was used as control. Cell viability was assessed through 3-(4.5-dimethylthiazol-2-yl)-2.5-diphenyl tetrazolium bromide (Sigma-Aldrich, USA) method. Optical density (OD) values were measured in a microplate spectrophotometer (Molecular Devices, Spectra Max Plus, San Jose, CA, USA) at 570 nm. IC50 values were calculated by sigmoidal regression of dose–response curves in Microsoft Excel software (version 10.0). Two-tailed Student’s t-tests (p < 0.05) were used to compare IC50 values between malvidin and echioidinin, assessing significant differences in inhibitory activity.

[2] = test system: L. braziliensis stationary promastigotes; assay: as above
Procedure: as §1, §2

[3] = test system: L. infantum stationary promastigotes; assay: as above
Procedure: as §1, §2

[4] = test system: L. amazonensis axenic amastigotes; assay: In vitro antileishmanial activity, axenic amastigotes (MTT); settings: for IC50: 48 h, axenic amastigotes, mean ± SD, read-out: IC50 (µM) Axenic amastigotes L. amazonensis
Procedure: as §1, §2

[5] = test system: L. braziliensis axenic amastigotes; assay: as above
Procedure: as §1, §2

[6] = test system: L. infantum axenic amastigotes; assay: as above
Procedure: as §1, §2

O+ human red blood cells = assay: Hemolytic activity; settings: human, 1 h
Procedure: Cytotoxicity was evaluated ex vivo in murine macrophages and human red blood cells, for which concentrations inhibiting 50% of macrophages (CC50) and red blood cells (RBC50) were determined. Briefly, murine cells (5 × 10^5) or a 5% human red blood cells suspension were incubated in the presence of malvidin (0 to 301.84 µM) or echioidinin (0 to 356.76 µM) AmpB (0 to 10.82 µM) was used as control. Cells were incubated in RPMI 1640 medium for 48 h (murine macrophages) or 1 h (red blood cells) at 37 °C in 5% CO2. Macrophage viability was assessed using the MTT method. The red blood cell suspension was centrifuged at 1000× g for 10 min at 4 °C, after which the percentage of cell lysis was evaluated spectrophotometrically at 570 nm. The hemolysis was determined by replacing the natural products with an equal volume of phosphate-buffered saline with a pH of 7.4 (PBS—negative control) or distilled water (positive control). CC50 and RBC50 values were calculated by sigmoidal regression of dose–response curves in Microsoft Excel software (version 10.0). SI was calculated as the ratio between CC50 and IC50 values.

[7] = test system: L. amazonensis-infected murine macrophages; assay: Treatment of infected macrophages; settings: 48 h
Procedure: (§3) To evaluate the efficacy of malvidin or echioidinin for treating infected macrophages, murine cells (5 × 10^5) were plated on round glass coverslips in 24-well plates in RPMI 1640 medium supplemented with 20% (v/v) FBS and 20 mM L-glutamine at a pH of 7.4 and incubated for 24 h at 37 °C in 5% CO2. Stationary promastigotes were added to the wells at a ratio of 10 parasites per macrophage, and cultures were incubated further for 48 h at 37 °C for 5% CO2. Free parasites were removed by extensive washing with RPMI 1640 medium, and infected macrophages were treated with malvidin (30.18, 60.37, and 120.74 µM), echioidinin (35.18, 70.36, and 140.72 µM), or AmpB (2.70 and 5.41 µM) for 48 h at […] in 5% CO2. After fixation with 4% paraformaldehyde, cells were washed and stained with Giemsa, and the infection percentage, the number of amastigotes per infected macrophage, and the reduction in the infection percentage were determined by counting 200 cells in triplicate, using an optical microscope.

[8] = test system: L. braziliensis-infected murine macrophages; assay: Treatment of infected macrophages; settings: 48 h
Procedure: as §3

[9] = test system: L. infantum-infected murine macrophages; assay: Treatment of infected macrophages; settings: 48 h
Procedure: as §3

[10] = ratio between CC50 (macrophages) and IC50

IC50 ([1]; Leishmania amazonensis): 0.06 ± 0.01 µM
IC50 [1]: 0.08 ± 0.02 µM
IC50 ([2]; Leishmania braziliensis, stationary promastigotes, 48 h, mean ± SD, read-out: IC50 (µM) Stationary Promastigotes L. braziliensis): 0.09 ± 0.03 µM
IC50 ([3]; Leishmania infantum, stationary promastigotes, 48 h, mean ± SD, read-out: IC50 (µM) Stationary Promastigotes L. infantum): 0.06 ± 0.01 µM
IC50 ([4]; Leishmania amazonensis): 0.1 ± 0.03 µM
IC50 [4]: 0.09 ± 0.02 µM
IC50 ([5]; Leishmania braziliensis, axenic amastigotes, 48 h, mean ± SD, read-out: IC50 (µM) Axenic amastigotes L. braziliensis): 0.1 ± 0.03 µM
IC50 ([6]; Leishmania infantum, axenic amastigotes, 48 h, mean ± SD, read-out: IC50 (µM) Axenic amastigotes L. infantum): 0.08 ± 0.02 µM
SMILES: C[C@@H]1[C@H](O)[C@@H](C)/C=C/C=C/C=C/C=C/C=C/C=C/C=C/[C@H](O[C@@H]2O[C@H](C)[C@@H](O)[C@H](N)[C@@H]2O)C[C@@H]2O[C@](O)(C[C@@H](O)C[C@@H](O)[C@H](O)CC[C@@H](O)C[C@@H](O)CC(=O)O[C@H]1C)C[C@H](O)[C@H]2C(=O)O [AmpB, amphotericin B, reference compound]
Selectivity Index (SI) Stationary Promastigotes L. amazonensis [1, 10]: 12.60
Selectivity Index (SI) Stationary Promastigotes L. braziliensis [2, 10]: 11.00
Selectivity Index (SI) Stationary Promastigotes L. infantum [3, 10]: 14.70
Selectivity Index (SI) Axenic amastigotes L. amazonensis [4, 10]: 11.00
Selectivity Index (SI) Axenic amastigotes L. braziliensis [5, 10]: 9.80
Selectivity Index (SI) Axenic amastigotes L. infantum [6, 10]: 12.60
RBC50 (O+ human red blood cells): 14.28 ± 1 µM
Infection After Treatment (%) ([7]; 2.71 µM): 34.30%
Infectiveness Reduction (%) ([7]; 2.71 µM): 62.84%
Number of Amastigotes per Macrophage ([7]; 2.71 µM): 2.60
Infection After Treatment (%) ([7]; 5.41 µM): 24.20%
Infectiveness Reduction (%) ([7]; 5.41 µM): 73.78%
Number of Amastigotes per Macrophage ([7]; 5.41 µM): 2.80
Infection After Treatment (%) ([8]; 2.71 µM): 24.40%
Infectiveness Reduction (%) ([8]; 2.71 µM): 64.48%
Number of Amastigotes per Macrophage ([8]; 2.71 µM): 2.60
Infection After Treatment (%) ([8]; 5.41 µM): 16.50%
Infectiveness Reduction (%) ([8]; 5.41 µM): 75.98%
Number of Amastigotes per Macrophage ([8]; 5.41 µM): 2.40
Infection After Treatment (%) ([9]; 2.71 µM): 28.70%
Infectiveness Reduction (%) ([9]; 2.71 µM): 61.48%
Number of Amastigotes per Macrophage ([9]; 2.71 µM): 3.00
Infection After Treatment (%) ([9]; 5.41 µM): 19.80%
Infectiveness Reduction (%) ([9]; 5.41 µM): 73.42%
Number of Amastigotes per Macrophage ([9]; 5.41 µM): 2.50
